According to US9273040B2 (Merck Sharp & Dohme Corp., priority 2011, dated 2016):

Columns and labels:
[1] = target: T1, human Nav1.5 channels stably expressed in HEK 293 cells (Homo sapiens, UniProt Q14524); test: PatchXpress 7000 automated patch-clamp, sodium current; format: cell-based; conditions: selectivity over Nav1.5
T1 construct: expressed in transfected cells
Method in brief: (§1)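 IC50 values came from Hill-equation fits of rundown-corrected inhibition. PatchXpress recordings at 22° C held cells 20 mV negative to V0.5 inact and applied 10 Hz trains of 30 ms steps to −20 mV (Nav1.7) or an 8000 ms prepulse 7 mV positive to V0.5 inact. […]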

[2] = target: T2, human Nav1.7 channels stably expressed in HEK 293 cells (Homo sapiens, UniProt Q15858); test: as above; format: cell-based; conditions: 22° C., read-out: potency for the Nav 1.7 sodium ion channel (as measured by PatchXpress)
T2 construct: expressed in transfected cells
T2 sequence (Q15858 whole entry): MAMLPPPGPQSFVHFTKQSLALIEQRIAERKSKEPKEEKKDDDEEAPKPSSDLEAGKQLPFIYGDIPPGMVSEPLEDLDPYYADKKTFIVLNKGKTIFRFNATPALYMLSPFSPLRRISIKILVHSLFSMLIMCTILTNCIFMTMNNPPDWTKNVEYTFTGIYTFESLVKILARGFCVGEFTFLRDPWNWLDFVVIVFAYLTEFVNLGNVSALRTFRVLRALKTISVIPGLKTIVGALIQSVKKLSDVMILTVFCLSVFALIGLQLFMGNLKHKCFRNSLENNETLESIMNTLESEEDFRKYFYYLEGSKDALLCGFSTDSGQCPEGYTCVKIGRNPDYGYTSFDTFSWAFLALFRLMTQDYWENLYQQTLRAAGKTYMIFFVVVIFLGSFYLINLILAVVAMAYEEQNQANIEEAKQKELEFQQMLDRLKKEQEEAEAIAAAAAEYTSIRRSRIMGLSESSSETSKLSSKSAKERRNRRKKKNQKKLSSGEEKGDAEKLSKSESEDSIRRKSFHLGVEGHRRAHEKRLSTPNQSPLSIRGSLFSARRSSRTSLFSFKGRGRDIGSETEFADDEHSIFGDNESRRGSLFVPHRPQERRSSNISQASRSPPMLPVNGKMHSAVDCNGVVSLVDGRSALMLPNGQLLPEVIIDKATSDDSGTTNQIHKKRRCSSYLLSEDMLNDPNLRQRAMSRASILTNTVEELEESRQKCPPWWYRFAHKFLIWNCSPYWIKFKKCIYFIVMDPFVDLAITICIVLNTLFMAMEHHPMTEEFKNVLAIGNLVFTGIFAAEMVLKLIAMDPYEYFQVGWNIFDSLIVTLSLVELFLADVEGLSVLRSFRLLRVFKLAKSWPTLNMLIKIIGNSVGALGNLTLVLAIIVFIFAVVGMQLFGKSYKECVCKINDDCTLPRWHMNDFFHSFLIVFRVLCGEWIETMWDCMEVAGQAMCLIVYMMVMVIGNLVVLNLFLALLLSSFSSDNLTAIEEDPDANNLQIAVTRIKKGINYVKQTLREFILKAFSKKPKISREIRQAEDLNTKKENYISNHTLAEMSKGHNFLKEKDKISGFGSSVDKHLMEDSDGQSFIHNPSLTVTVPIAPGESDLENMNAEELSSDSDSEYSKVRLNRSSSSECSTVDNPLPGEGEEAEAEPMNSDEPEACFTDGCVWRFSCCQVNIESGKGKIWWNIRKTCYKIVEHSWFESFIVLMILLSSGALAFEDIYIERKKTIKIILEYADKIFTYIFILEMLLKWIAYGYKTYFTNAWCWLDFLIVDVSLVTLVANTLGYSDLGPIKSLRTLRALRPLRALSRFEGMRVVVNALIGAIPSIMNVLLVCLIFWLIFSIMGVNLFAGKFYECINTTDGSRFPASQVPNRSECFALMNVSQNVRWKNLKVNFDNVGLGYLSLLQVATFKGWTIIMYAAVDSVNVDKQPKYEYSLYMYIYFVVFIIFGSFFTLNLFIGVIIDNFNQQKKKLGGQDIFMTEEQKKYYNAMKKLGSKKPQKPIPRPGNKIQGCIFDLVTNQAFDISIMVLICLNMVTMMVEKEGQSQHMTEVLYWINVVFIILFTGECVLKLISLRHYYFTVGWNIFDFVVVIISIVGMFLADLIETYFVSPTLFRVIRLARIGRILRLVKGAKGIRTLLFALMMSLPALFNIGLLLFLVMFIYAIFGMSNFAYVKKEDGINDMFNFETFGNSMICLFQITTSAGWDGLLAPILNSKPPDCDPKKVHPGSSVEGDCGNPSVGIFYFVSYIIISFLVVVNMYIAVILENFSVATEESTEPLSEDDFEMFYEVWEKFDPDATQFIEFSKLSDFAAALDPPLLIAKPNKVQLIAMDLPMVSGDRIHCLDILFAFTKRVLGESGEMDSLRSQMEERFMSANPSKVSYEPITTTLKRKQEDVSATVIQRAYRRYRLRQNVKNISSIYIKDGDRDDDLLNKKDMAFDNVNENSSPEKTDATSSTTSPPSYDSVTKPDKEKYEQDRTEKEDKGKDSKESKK
Method in brief: as §1

T1 sequence (Q14524 whole entry): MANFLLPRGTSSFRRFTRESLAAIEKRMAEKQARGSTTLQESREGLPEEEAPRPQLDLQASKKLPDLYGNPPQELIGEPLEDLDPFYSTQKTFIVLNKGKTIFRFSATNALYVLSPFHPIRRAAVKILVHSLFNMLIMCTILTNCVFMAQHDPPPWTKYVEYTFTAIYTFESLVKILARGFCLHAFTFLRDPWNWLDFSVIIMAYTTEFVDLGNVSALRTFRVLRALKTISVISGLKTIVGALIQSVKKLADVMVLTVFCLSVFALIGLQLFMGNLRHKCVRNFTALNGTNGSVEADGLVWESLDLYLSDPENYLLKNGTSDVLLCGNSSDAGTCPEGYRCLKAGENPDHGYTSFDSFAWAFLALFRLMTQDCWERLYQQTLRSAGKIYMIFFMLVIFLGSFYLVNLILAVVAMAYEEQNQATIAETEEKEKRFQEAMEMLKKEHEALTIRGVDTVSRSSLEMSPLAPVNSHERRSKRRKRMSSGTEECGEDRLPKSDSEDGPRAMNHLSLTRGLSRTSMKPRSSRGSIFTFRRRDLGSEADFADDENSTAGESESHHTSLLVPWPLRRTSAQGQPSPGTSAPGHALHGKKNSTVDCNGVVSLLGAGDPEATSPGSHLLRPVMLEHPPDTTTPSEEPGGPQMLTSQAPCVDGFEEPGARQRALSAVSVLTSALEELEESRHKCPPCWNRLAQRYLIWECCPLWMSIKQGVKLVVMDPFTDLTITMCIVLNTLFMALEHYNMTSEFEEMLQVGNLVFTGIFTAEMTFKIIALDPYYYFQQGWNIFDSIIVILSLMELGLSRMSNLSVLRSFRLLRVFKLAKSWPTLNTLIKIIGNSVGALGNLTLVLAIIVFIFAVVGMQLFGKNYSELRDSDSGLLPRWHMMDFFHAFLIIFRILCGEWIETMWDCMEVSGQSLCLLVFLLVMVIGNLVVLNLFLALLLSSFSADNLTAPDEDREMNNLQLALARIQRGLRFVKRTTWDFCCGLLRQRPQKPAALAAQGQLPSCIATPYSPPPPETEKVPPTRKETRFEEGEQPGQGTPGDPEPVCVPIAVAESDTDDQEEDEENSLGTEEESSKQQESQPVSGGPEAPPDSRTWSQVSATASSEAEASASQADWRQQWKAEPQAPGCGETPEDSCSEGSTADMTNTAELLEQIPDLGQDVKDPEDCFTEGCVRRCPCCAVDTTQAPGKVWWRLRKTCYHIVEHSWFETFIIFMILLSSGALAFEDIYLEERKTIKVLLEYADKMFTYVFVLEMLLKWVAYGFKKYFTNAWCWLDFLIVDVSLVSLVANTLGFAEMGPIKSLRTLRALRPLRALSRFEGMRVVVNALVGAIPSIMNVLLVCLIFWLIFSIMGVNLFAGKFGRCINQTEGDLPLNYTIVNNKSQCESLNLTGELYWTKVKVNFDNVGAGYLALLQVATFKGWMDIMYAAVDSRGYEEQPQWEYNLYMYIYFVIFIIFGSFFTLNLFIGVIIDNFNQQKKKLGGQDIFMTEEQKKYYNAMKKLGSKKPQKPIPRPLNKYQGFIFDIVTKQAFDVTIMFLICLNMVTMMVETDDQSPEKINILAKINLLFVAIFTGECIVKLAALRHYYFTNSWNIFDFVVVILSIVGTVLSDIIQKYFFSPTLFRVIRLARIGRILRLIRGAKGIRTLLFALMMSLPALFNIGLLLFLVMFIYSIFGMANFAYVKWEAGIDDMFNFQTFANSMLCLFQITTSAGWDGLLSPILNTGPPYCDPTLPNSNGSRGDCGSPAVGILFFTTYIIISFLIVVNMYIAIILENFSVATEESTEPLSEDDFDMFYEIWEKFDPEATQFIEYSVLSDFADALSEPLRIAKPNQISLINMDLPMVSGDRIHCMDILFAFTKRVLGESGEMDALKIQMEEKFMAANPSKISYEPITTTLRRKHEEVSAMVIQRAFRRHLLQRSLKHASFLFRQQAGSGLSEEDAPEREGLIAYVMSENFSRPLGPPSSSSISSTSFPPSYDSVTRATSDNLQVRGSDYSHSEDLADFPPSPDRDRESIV

| Structure (SMILES) | ratio of Nav 1.5:Nav 1.7 potency, determined by PatchXpress measurement [1] | IC50 [2] [nM] |
| --- | --- | --- |
| C[C@@H](c1cccc2ccncc12)n1c(=O)oc2cc(S(=O)(=O)Nc3ncns3)ccc21 [Compound 14-9, 3-[(1S)-1-isoquinolin-8-ylethyl]-2-oxo-N-1,2,4-thiadiazol-5-yl-2,3-dihydro-1,3-benzoxazole-6-sulfonamide] | 37 | 808 |
| C[C@H](c1ccccc1C#CCCO)n1c(=O)oc2cc(S(=O)(=O)Nc3ncns3)c(F)cc21 [Compound 17-4, 5-fluoro-3-{(1R)-1-[2-(4-hydroxybut-1-yn-1-yl)phenyl]ethyl}-2-oxo-N-1,2,4-thiadiazol-5-yl-2,3-dihydro-1,3-benzoxazole-6-sulfonamide] | 360 | 147 |
| C[C@H](c1cccc2cncn12)n1c(=O)oc2cc(S(=O)(=O)Nc3nccs3)c(F)cc21 [Compound 43-18, 5-fluoro-3-[(1R)-1-imidazo[1,5-a]pyridin-5-ylethyl]-2-oxo-N-1,3-thiazol-2-yl-2,3-dihydro-1,3-benzoxazole-6-sulfonamide] | 139 | 215 |
| CC1(C)CC(n2c(=O)oc3cc(S(=O)(=O)Nc4ncns4)c(F)cc32)c2ccccc2O1 (stereo not shown) [Compound 39-7, 3-(2,2-dimethyl-3,4-dihydro-2H-chromen-4-yl)-5-fluoro-2-oxo-N-1,2,4-thiadiazol-5-yl-2,3-dihydro-1,3-benzoxazole-6-sulfonamide] | 137 | 218 |
| NC1Cc2cccc(Cn3c(=O)oc4cc(S(=O)(=O)Nc5ncns5)c(F)cc43)c2C1 (racemic) [Compound 23-17, (+/−)-3-[(2-amino-2,3-dihydro-1H-inden-4-yl)methyl]-5-fluoro-2-oxo-N-1,2,4-thiadiazol-5-yl-2,3-dihydro-1,3-benzoxazole-6-sulfonamide] | 321 | 50 |
| C[C@H](c1cccc2cncn12)n1c(=O)oc2cc(S(=O)(=O)Nc3ncns3)c(F)cc21 [Compound 15-3, (R)-5-Fluoro-3-(1-(imidazo[1,5-a]pyridin-5-yl)ethyl)-2-oxo-N-(1,2,4-thiadiazol-5-yl)-2,3-dihydrobenzo[d]oxazole-6-sulfonamide] | 122 | 134 |
| CC(=O)OCC(=O)NC1CCc2cccc(Cn3c(=O)oc4cc(S(=O)(=O)Nc5ncns5)c(F)cc43)c2C1 (single isomer, unassigned) [Compound 23-4, (R or S)-2-[(8-{[5-fluoro-2-oxo-6-(1,2,4-thiadiazol-5-ylsulfamoyl)-1,3-benzoxazol-3(2H)-yl]methyl}-1,2,3,4-tetrahydronaphthalen-2-yl)amino]-2-oxoethyl acetate] | 97 | 310 |
| NC1Cc2cccc(Cn3c(=O)oc4cc(S(=O)(=O)Nc5ncns5)ccc43)c2C1 (racemic) [Compound 23-9, (+/−)-3-[(2-amino-2,3-dihydro-1H-inden-4-yl)methyl]-2-oxo-N-1,2,4-thiadiazol-5-yl-2,3-dihydro-1,3-benzoxazole-6-sulfonamide] | 167 | 180 |
| Nc1ccc2c(c1)C(n1c(=O)oc3cc(S(=O)(=O)Nc4nccs4)c(F)cc31)CCC2 (stereo not shown) [Compound 43-16, 3-(7-amino-1,2,3,4-tetrahydronaphthalen-1-yl)-5-fluoro-2-oxo-N-1,3-thiazol-2-yl-2,3-dihydro-1,3-benzoxazole-6-sulfonamide] | 329 | 211 |
| NC1CCc2c(cccc2Cn2c(=O)oc3cc(S(=O)(=O)Nc4ncns4)ccc32)C1 (racemic) [Compound 23-3, (+/−)-3-[(6-amino-5,6,7,8-tetrahydronaphthalen-1-yl)methyl]-2-oxo-N-1,2,4-thiadiazol-5-yl-2,3-dihydro-1,3-benzoxazole-6-sulfonamide] | 88 | 342 |
| COC(=O)[C@H](c1ccccc1)n1c(=O)oc2cc(S(=O)(=O)Nc3nccs3)ccc21 [Compound 41-6, methyl (2S)-[2-oxo-6-(1,3-thiazol-2-ylsulfamoyl)-1,3-benzoxazol-3(2H)-yl](phenyl)ethanoate] | 54 | 553 |
| C[C@H](c1ccccc1C#CCN1CCOCC1)n1c(=O)oc2cc(S(=O)(=O)Nc3ncns3)c(F)cc21 [Compound 17-2, 5-fluoro-3-{(1R)-1-[2-(3-morpholin-4-ylprop-1-yn-1-yl)phenyl]ethyl}-2-oxo-N-1,2,4-thiadiazol-5-yl-2,3-dihydro-1,3-benzoxazole-6-sulfonamide] | 90 | 332 |
| C[C@@H](c1cccc2cncn12)n1c(=O)oc2cc(S(=O)(=O)Nc3nccs3)c(F)cc21 [Compound 43-17, 5-fluoro-3-[(1S)-1-imidazo[1,5-a]pyridin-5-ylethyl]-2-oxo-N-1,3-thiazol-2-yl-2,3-dihydro-1,3-benzoxazole-6-sulfonamide] | 48 | 621 |
| C[C@H](c1ccccc1C#CCNS(C)(=O)=O)n1c(=O)oc2cc(S(=O)(=O)Nc3ncns3)c(Br)cc21 [Compound 36-4, 5-bromo-3-[(1R)-1-(2-{3-[(methylsulfonyl)amino]prop-1-yn-1-yl}phenyl)ethyl]-2-oxo-N-1,2,4-thiadiazol-5-yl-2,3-dihydro-1,3-benzoxazole-6-sulfonamide] | 36 | 169 |
| C[C@H](c1cccc(-c2ccn(C)n2)c1)n1c(=O)oc2cc(S(=O)(=O)Nc3ncns3)c(F)cc21 [Compound 28-3, (R)-5-Fluoro-3-(1-(3-(1-methyl-1H-pyrazol-3-yl)phenyl)ethyl)-2-oxo-N-(1,2,4-thiadiazol-5-yl)-2,3-dihydrobenzo[d]oxazole-6-sulfonamide] | 86 | 306 |
| C[C@H](c1ccccc1CN1CCC(F)C1)n1c(=O)oc2cc(S(=O)(=O)Nc3ncns3)c(F)cc21 (stereo partly drawn) [Compound 18-4, 5-fluoro-3-[(1R)-1-{2-[(3-fluoropyrrolidin-1-yl)methyl]phenyl}ethyl]-2-oxo-N-1,2,4-thiadiazol-5-yl-2,3-dihydro-1,3-benzoxazole-6-sulfonamide] | 82 | 132 |
| O=c1oc2cc(S(=O)(=O)Nc3ncns3)c(F)cc2n1[C@H](CO)c1ccccc1 [Compound 13-12, 5-fluoro-3-[(1S)-2-hydroxy-1-phenylethyl]-2-oxo-N-1,2,4-thiadiazol-5-yl-2,3-dihydro-1,3-benzoxazole-6-sulfonamide] | > 71 | 422 |
| Cc1cc2c(cc1S(=O)(=O)Nc1ncns1)oc(=O)n2[C@H](C)c1ccccc1 [Compound 38-3] | 37 | 43 |
| O=c1oc2cc(S(=O)(=O)Nc3ncns3)c(F)cc2n1Cc1cccc2c1CC(N1CCS(=O)(=O)CC1)CC2 (single isomer, unassigned) [Compound 23-6, (R or S)-3-{[7-(1,1-dioxidothiomorpholin-4-yl)-5,6,7,8-tetrahydronaphthalen-1-yl]methyl}-5-fluoro-2-oxo-N-1,2,4-thiadiazol-5-yl-2,3-dihydro-1,3-benzoxazole-6-sulfonamide] | 146 | 206 |
| Nc1ccc2c(c1)C(n1c(=O)oc3cc(S(=O)(=O)Nc4ncns4)c(F)cc31)CCC2 (stereo not shown) [Compound 39-3] | 1196 | 41 |
| C[C@H](c1ccccc1C1CNC1)n1c(=O)oc2cc(S(=O)(=O)Nc3nccs3)c(F)cc21 [Compound 43-21, 3-[(1R)-1-(2-azetidin-3-ylphenyl)ethyl]-5-fluoro-2-oxo-N-1,3-thiazol-2-yl-2,3-dihydro-1,3-benzoxazole-6-sulfonamide] | 1164 | 18 |
| C[C@H](c1cccc2c1CC(NS(C)(=O)=O)CC2)n1c(=O)oc2cc(S(=O)(=O)Nc3ncns3)c(F)cc21 (stereo partly drawn) [Compound 36-7, 5-fluoro-3-[(1R)-1-{7-[(methylsulfonyl)amino]-5,6,7,8-tetrahydronaphthalen-1-yl)ethyl]-2-oxo-N-1,2,4-thiadiazol-5-yl-2,3-dihydro-1,3-benzoxazole-6-sulfonamide] | 107 | 27 |
| C[C@H](c1ccccc1CN(C)C)n1c(=O)oc2cc(S(=O)(=O)Nc3ncns3)c(F)cc21 [Compound 18-5, 3-[(1R)-1-{2-[(dimethylamino)methyl]phenyl}ethyl]-5-fluoro-2-oxo-N-1,2,4-thiadiazol-5-yl-2,3-dihydro-1,3-benzoxazole-6-sulfonamide] | 525 | 13 |
| O=c1oc2cc(S(=O)(=O)Nc3ncns3)c(F)cc2n1Cc1cccc2c1CC(NCC(F)F)CC2 (racemic) [Compound 23-13, (+/−)-3-({7-[(2,2-difluoroethyl)amino]-5,6,7,8-tetrahydronaphthalen-1-yl}methyl)-5-fluoro-2-oxo-N-1,2,4-thiadiazol-5-yl-2,3-dihydro-1,3-benzoxazole-6-sulfonamide] | 121 | 84 |
| C[C@@H](c1cccc2cncn12)n1c(=O)oc2cc(S(=O)(=O)Nc3ncns3)c(F)cc21 [Compound 15-4, 5-fluoro-3-[(1S)-1-imidazo[1,5-a]pyridin-5-ylethyl]-2-oxo-N-1,2,4-thiadiazol-5-yl-2,3-dihydro-1,3-benzoxazole-6-sulfonamide] | 60 | 235 |
| O=c1oc2cc(S(=O)(=O)Nc3ncns3)c(F)cc2n1[C@H](CCF)c1ccccc1 [Compound 37-3] | 39 | 132 |
